Experimental data as given in US20240407993A1, “PEPTIDE HAVING ANTI-AGING ACTIVITY, AND USE THEREOF” (CAREGEN CO., LTD., priority 2021, published 2024).

Key:
[1] = test system: Elastin; assay: Elastin gene expression by RT-PCR in fibroblasts; assay type: cell-based, mouse; conditions: NIH3T3 cells, peptide 1, 10, 50 μM, 24 hours; FIGS. 1A, 1D
Protocol: (§1) First, NIH3T3 cells (mouse fibroblast cell line) were seeded in a 6-well plate at a cell density of 3×10^5 cell/well, and then the cells were cultured in DMEM medium containing 10% fetal bovine serum (FBS) for 24 hours. The cultured cells were washed once with serum free DMEM medium, and the peptide of the present invention was mixed in 1 mL of the serum free DMEM medium at each of concentrations of 1, 10, and 50 μM, and dispensed into the cells. A positive control (PC) was treated with 5 ng/ml of TGF-β1 instead of the above peptide. The cells were cultured in a CO2 incubator at 37° C. for 24 hours.
(§2) The cultured cells were washed twice with PBS, and RNA was extracted from the cells using easy blue (iNtRON, Cat. No.: 17061, Korea). The amount of RNA extracted was quantified, 1,000 ng of RNA was added per tube, and RT reaction was performed using a kit (enzynomics, Cat. No.: PT200, Korea). RT-PCR was performed using a PCR kit (enzynomics, Cat. No.: […], Korea). The sequences of the primers of collagen, fibronectin, and elastin used in RT-PCR and the sequence of the primer of GAPDH used to compare the total RNA amount of each treatment group are shown in [Table 2].

[2] = test system: SIRT1; assay: SIRT1 mRNA level decreased by UV irradiation, RT-PCR in keratinocytes; assay type: cell-based, human; conditions: HaCaT cells, 20 mJ/cm^2 UVB, peptide 1, 10, 50 μM, 4 hours after irradiation; FIGS. 7A, 7B
Protocol: The expression of genes related to aging is inhibited when irradiated with UV.
First, HaCaT cells were seeded in a 6-well plate at a cell density of 5×10^5 cell/well, and then the cells were cultured in DMEM medium containing 10% fetal bovine serum (FBS) for 24 hours. The cultured cells were washed once with serum free DMEM medium, and then the peptide of the present invention was mixed in 1 mL of the serum free DMEM medium at each of concentrations of 1, 10, and 50 μM, and dispensed into the cells. A positive control (PC) was treated with 2.5 mM of N-Acetylcysteine (NaC) instead of the above peptide.
The cells were cultured in a CO2 incubator at 37° C. for 1 hour. The medium of the cultured cells was transferred to a tube (e-tube), 1 ml of PBS was added, and irradiation was performed with 20 mJ/cm^2 of UVB using a UV irradiator (VILBER LOURMAT, Cat No.: 3102-BSU, France). After removing PBS, 900 μL of the medium transferred to the tube was added, and culture was performed in a CO2 incubator at 37° C. for 4 hours. The cultured cells were washed twice with PBS, and then RNA was extracted from the cells using easy blue (iNtRON, Cat. No.: 17061, Korea). The extracted RNA was subjected to RT reaction using a kit (enzynomics, Cat. No.: RT200, Korea). Thereafter, RT-PCR was performed using a PCR kit (enzynomics, Cat. No.: R581T, Korea). […]

[3] = test system: Fibronectin; assay: Fibronectin gene expression by RT-PCR in fibroblasts; assay type: cell-based, mouse; conditions: NIH3T3 cells, peptide 1, 10, 50 μM, 24 hours; FIGS. 1A, 1C
Protocol: as §1, §2

Sequence: LCACCLHNCNECQ
- expression of the elastin gene [1]: gradually increased as a concentration of the peptide increased
- mRNA level of SIRT1 decreased by UV irradiation [2]: increased again
- expression of the fibronectin gene [3]: gradually increased as a concentration of the peptide increased
